Read-outs that look alike come from different tables or passages of the source.
Experiments:
His6-TEV-PPARγ-(234-505) = biological target: T1, His6-TEV-PPARγ-(234-505) (Homo sapiens, UniProt P37231); test: TR-FRET Assay to Measure Co-R Peptide Recruitment to PPARγ; format: biochemical; conditions: Co-R peptide (SMRT-ID2) recruitment; top final concentration 20 μM; read-out: TR-FRET i-Ag; AC50
T1 construct: The His6-TEV-PPARγ-(234-505) protein for assay was expressed and purified; TEV cleavage site (N); made in house
T1 sequence (P37231 234-505): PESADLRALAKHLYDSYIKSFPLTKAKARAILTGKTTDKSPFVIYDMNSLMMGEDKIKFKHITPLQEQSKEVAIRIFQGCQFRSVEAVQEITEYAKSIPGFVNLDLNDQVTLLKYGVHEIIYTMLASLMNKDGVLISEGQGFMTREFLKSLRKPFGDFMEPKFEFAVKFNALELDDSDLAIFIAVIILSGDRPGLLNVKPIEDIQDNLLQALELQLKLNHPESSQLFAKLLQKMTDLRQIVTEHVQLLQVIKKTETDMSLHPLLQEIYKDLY
How it was run: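 Corepressor recruitment is measured by adding terbium-labeled anti-His antibody and FITC SMRT-ID2 peptide, at 5 and 200 nM final, after a 20-minute room-temperature protein–compound incubation. After one further hour, signal is converted to percent response between DMSO and 500 nM T0070907 wells.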

UM-UC-9 engineered cells = test: Cell proliferation / short-term viability assay, CellTiter-Glo 144 h; format: cell-based, human; conditions: read-out: CTGlo 144 h UMUC9.5, G150
How it was run: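 Viability read by CellTiter-Glo 2.0 luminescence at day 7 versus DMSO-vehicle wells and a T0 plate measured on day 0. Cells: UM-UC-9 engineered assay-ready stocks, 500 cells/well in high-glucose DMEM with 10% FBS, 37° C, 5% CO2.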

Structure (SMILES)	AC50 (His6-TEV-PPARγ-(234-505)) [nM]	IC50 (UM-UC-9 engineered cells; Homo sapiens, UM-UC-9, 144 h) [nM]	IC50 (UM-UC-9 engineered cells) [nM]
COc1cc(-c2cc(C(=O)N3CC[C@H](C(=O)NCc4ncc(C(F)(F)F)[nH]4)CC34CC4)[nH]n2)c(F)cn1 [Example 476, (S)-4-(3-(5-fluoro-2-methoxypyridin-4-yl)-1H-pyrazole-5-carbonyl)-N-((5-(trifluoromethyl)-1H-imidazol-2-yl)methyl)-4-azaspiro[2.5]octane-7-carboxamide]	17.4	406	
CC(=O)c1cc(-c2cc(C(=O)N3CCC(C(=O)NCc4ncc(F)cc4Cl)CC34CC4)n[nH]2)c(F)cn1 (stereo not drawn) [Example 477, 4-(5-(2-acetyl-5-fluoropyridin-4-yl)-1H-pyrazole-3-carbonyl)-N-((3-chloro-5-fluoropyridin-2-yl)methyl)-4-azaspiro[2.5]octane-7-carboxamide]	42.8	307	
COc1cc(-c2cc(C(=O)N3CC[C@H](C(=O)NCc4nc(N5C[C@@H](C)N[C@@H](C)C5)oc4C(F)(F)F)CC34CC4)n[nH]2)c(F)cn1 [Example 482, (S)—N-((2-((3S,5R)-3,5-dimethylpiperazin-1-yl)-5-(trifluoromethyl)oxazol-4-yl)methyl)-4-(5-(5-fluoro-2-methoxypyridin-4-yl)-1H-pyrazole-3-carbonyl)-4-azaspiro[2.5]octane-7-carboxamide]	29.5	270	
COc1cc(-c2cc(C(=O)N3CC[C@H](C(=O)NCc4nc(N5C[C@@H](C)N(C)[C@@H](C)C5)oc4C(F)(F)F)CC34CC4)n[nH]2)c(F)cn1 [Example 485, (S)-4-(5-(5-fluoro-2-methoxypyridin-4-yl)-N-pyrazole-3-carbonyl)-N-((5-(trifluoromethyl)-2-((3S,5R)-3,4,5-trimethylpiperazin-1-yl)oxazol-4-yl)methyl)-4-azaspiro[2.5]octane-7-carboxamide]	26.7	350	
COc1cc(-c2cc(C(=O)N3CC[C@H](C(=O)Nc4cnn5ccc(C#N)nc45)CC34CC4)n[nH]2)c(F)cn1 [Example 487, (S)—N-(5-cyanopyrazolo[1,5-a]pyrimidin-3-yl)-4-(5-(5-fluoro-2-methoxypyridin-4-yl)-1H-pyrazole-3-carbonyl)-4-azaspiro[2.5]octane-7-carboxamide]	0.7	2.4	
COc1cc(-c2cc(C(=O)N3CC[C@H](C(=O)NC4CCN(c5ccc(C#N)nc5)C4)CC34CC4)n[nH]2)c(F)cn1 (stereo partly drawn) [Example 488, (7S)—N-(1-(6-cyanopyridin-3-yl)pyrrolidin-3-yl)-4-(5-(5-fluoro-2-methoxypyridin-4-yl)-1H-pyrazole-3-carbonyl)-4-azaspiro[2.5]octane-7-carboxamide]	0.9	6.6	
COc1cc(-c2cc(C(=O)N3CC[C@H](C(=O)NCc4ncc(OC(C)C)cc4Cl)CC34CC4)n[nH]2)c(F)cn1 [Example 491, (S)—N-((3-chloro-5-isopropoxypyridin-2-yl)methyl)-4-(5-(5-fluoro-2-methoxypyridin-4-yl)-1H-pyrazole-3-carbonyl)-4-azaspiro[2.5]octane-7-carboxamide]	0.3	11	
COc1cc(-c2cc(C(=O)N3CC[C@H](C(=O)Nc4cnn5cc(C(C)=O)ccc45)CC34CC4)n[nH]2)c(F)cn1 [Example 494, (S)—N-(6-acetylpyrazolo[1,5-a]pyridin-3-yl)-4-(5-(5-fluoro-2-methoxypyridin-4-yl)-1H-pyrazole-3-carbonyl)-4-azaspiro[2.5]octane-7-carboxamide]	6.7	80.8	
COc1cc(-c2cc(C(=O)N3CC[C@H](C(=O)NC4CCC5(COC5)c5cccnc54)CC34CC4)n[nH]2)c(F)cn1 (stereo partly drawn) [Example 496, (7S)—N-(7′,8′-dihydro-6′H-spiro[oxetane-3,5′-quinolin]-8′-yl)-4-(5-(5-fluoro-2-methoxypyridin-4-yl)-1H-pyrazole-3-carbonyl)-4-azaspiro[2.5]octane-7-carboxamide]	9.6	68.2	
CCN1CC(NC(=O)[C@H]2CCN(C(=O)c3cc(-c4cc(OC)ncc4F)[nH]n3)C3(CC3)C2)CCC12COC2 (stereo partly drawn) [Example 497, (7S)—N-(5-ethyl-2-oxa-5-azaspiro[3.5]nonan-7-yl)-4-(5-(5-fluoro-2-methoxypyridin-4-yl)-1H-pyrazole-3-carbonyl)-4-azaspiro[2.5]octane-7-carboxamide]	87.7	645	
COc1cc(-c2cc(C(=O)N3CC[C@H](C(=O)Nc4cnn5c4OC(C)(C)CC5)CC34CC4)n[nH]2)c(F)cn1 [Example 498, (S)—N-(5,5-dimethyl-6,7-dihydro-5H-pyrazolo[5,1-b][1,3]oxazin-3-yl)-4-(5-(5-fluoro-2-methoxypyridin-4-yl)-1H-pyrazole-3-carbonyl)-4-azaspiro[2.5]octane-7-carboxamide]	2.9	21.9	
COc1cc(-c2cc(C(=O)N3CC[C@H](C(=O)NCC45COC(CN)(C4)C5)CC34CC4)n[nH]2)c(F)cn1 [Example 499, (S)—N-((1-(aminomethyl)-2-oxabicyclo[2.1.1]hexan-4-yl)methyl)-4-(5-(5-fluoro-2-methoxypyridin-4-yl)-1H-pyrazole-3-carbonyl)-4-azaspiro[2.5]octane-7-carboxamide]	294	> 10000	
COc1cc(-c2cc(C(=O)N3CC[C@H](C(=O)NCc4cccnc4C(F)(F)F)CC34CC4)[nH]n2)c(F)cn1 [Example 500, (S)-4-(3-(5-fluoro-2-methoxypyridin-4-yl)-1H-pyrazole-5-carbonyl)-N-((2-(trifluoromethyl)pyridin-3-yl)methyl)-4-azaspiro[2.5]octane-7-carboxamide]	7.5	13.3	
COc1cc(-c2cc(C(=O)N3CC[C@H](C(=O)NCc4[nH]cnc4C(F)(F)F)CC34CC4)[nH]n2)c(F)cn1 [Example 503, (S)-4-(3-(5-fluoro-2-methoxypyridin-4-yl)-1H-pyrazole-5-carbonyl)-N-((4-(trifluoromethyl)-1H-imidazol-5-yl)methyl)-4-azaspiro[2.5]octane-7-carboxamide]	8.1	146	
COc1cc(-c2cc(C(=O)N3CC[C@H](C(=O)NCc4conc4C(F)(F)F)CC34CC4)[nH]n2)c(F)cn1 [Example 505, (S)-4-(3-(5-fluoro-2-methoxypyridin-4-yl)-1H-pyrazole-5-carbonyl)-N-((3-(trifluoromethyl)isoxazol-4-yl)methyl)-4-azaspiro[2.5]octane-7-carboxamide]	6.9	10.3	
COc1cc(-c2cc(C(=O)N3CC[C@H](C(=O)NCc4c(C(F)(F)F)cnn4C)CC34CC4)[nH]n2)c(F)cn1 [Example 507, (S)-4-(3-(5-fluoro-2-methoxypyridin-4-yl)-1H-pyrazole-5-carbonyl)-N-((1-methyl-4-(trifluoromethyl)-1H-pyrazol-5-yl)methyl)-4-azaspiro[2.5]octane-7-carboxamide]	17.4	14.1	
COc1cc(-c2cc(C(=O)N3CC[C@H](C(=O)NCc4nnn(C)c4C(F)(F)F)CC34CC4)[nH]n2)c(F)cn1 [Example 508, (S)-4-(3-(5-fluoro-2-methoxypyridin-4-yl)-1H-pyrazole-5-carbonyl)-N-((1-methyl-5-(trifluoromethyl)-1H-1,2,3-triazol-4-yl)methyl)-4-azaspiro[2.5]octane-7-carboxamide]	5.6	8.5	
COc1cc(-c2cc(C(=O)N3CC[C@H](C(=O)NCc4cn(C)nc4C(F)(F)F)CC34CC4)[nH]n2)c(F)cn1 [Example 509, (S)-4-(3-(5-fluoro-2-methoxypyridin-4-yl)-1H-pyrazole-5-carbonyl)-N-((1-methyl-3-(trifluoromethyl)-1H-pyrazol-4-yl)methyl)-4-azaspiro[2.5]octane-7-carboxamide]	4.2	7	
COc1cc(-c2cc(C(=O)N3CC[C@H](C(=O)NCc4ncccc4C(F)(F)F)CC34CC4)[nH]n2)c(F)cn1 [Example 510, (S)-4-(3-(5-fluoro-2-methoxypyridin-4-yl)-1H-pyrazole-5-carbonyl)-N-((3-(trifluoromethyl)pyridin-2-yl)methyl)-4-azaspiro[2.5]octane-7-carboxamide]	3.8	1.8	
COc1cc(-c2cc(C(=O)N3CC[C@H](C(=O)NCc4ncc(F)cn4)CC34CC4)[nH]n2)c(F)cn1 [Example 512, (S)-4-(3-(5-fluoro-2-methoxypyridin-4-yl)-1H-pyrazole-5-carbonyl)-N-((5-fluoropyrimidin-2-yl)methyl)-4-azaspiro[2.5]octane-7-carboxamide]	11.2	97.2	
COc1cc(-c2cc(C(=O)N3CC[C@H](C(=O)NCc4cccnc4C(F)(F)F)CC34CC4)[nH]n2)c(F)cn1 [Example 513, (S)-4-(3-(5-fluoro-2-methoxypyridin-4-yl)-1H-pyrazole-5-carbonyl)-N-((2-(trifluoromethyl)pyridin-3-yl)methyl)-4-azaspiro[2.5]octane-7-carboxamide]	6.1		15.4

— US12606541B2, “PPARg modulators and methods of use” (Eisai R&D Management Co., Ltd., priority 2020, dated 2026)
